This is an account of results in ChEMBL document CHEMBL4052800, “Syntheses of cytotoxic novel arctigenin derivatives bearing halogen and alkyl groups on aromatic rings” (Bioorg Med Chem Lett, 2017).

For test [1], the system named is HL-60. As to the kind of experiment: Cytotoxicity against human HL60 cells assessed as reduction in cell viability after 48 hrs by WST-8 assay. Format: functional, cell-based. Particulars: HL-60, 48 h.
Test [2] has as its system HL-60. As to the kind of experiment: Cytotoxicity against human HL60 cells assessed as reduction in cell viability after 48 hrs by WST-8 assay relative to control. The format is functional.
Test [3] has as its system HeLa. Kind of test: Cytotoxicity against human HeLa cells assessed as reduction in cell viability after 48 hrs by WST-8 assay. Format: functional, cell-based.

The structures appear in SMILES notation.

Turning to `COc1ccc(C[C@H]2C(=O)OC[C@@H]2Cc2ccccc2)cc1OC`, the EC50 in test [1] was over 100 µM. The “inhibition (INH)” value in test [2] is reported as 38%.

Take `CCCCOc1ccc(/C=C2/C(=O)OC[C@@H]2Cc2ccccc2)cc1`: the 50% effective concentration (EC50) in test [1] is over 100 µM. The “inhibition (INH)” value in test [2] was found to be 36%.

With `O=C1OC[C@H](Cc2ccccc2)[C@H]1Cc1cccc(O)c1`, the EC50 in test [1] was over 100 µM. In test [2], the “inhibition (INH)” value was found to be 45%.

Turning to `CCCCOc1ccc(C[C@H]2C(=O)OC[C@@H]2Cc2ccccc2)cc1OCCCC`, the EC50 in test [1] is over 100 µM. Also, the “inhibition (INH)” value in test [2] is listed as 29%.

For the molecule `O=C1OC[C@H](Cc2ccccc2)[C@H]1Cc1ccc(Cl)cc1Cl`, the EC50 in test [1] turned out to be 19 µM; in test [3], 23 µM.

In the case of `COc1ccccc1C[C@H]1COC(=O)[C@@H]1Cc1ccc(Cl)c(Cl)c1`, the EC50 in test [1] came out at 14 µM; in test [3] it was 24 µM.

As for `COc1cc(C[C@H]2C(=O)OC[C@@H]2Cc2ccccc2)cc(OC)c1OC`, the EC50 in test [1] was over 100 µM. Further, the “inhibition (INH)” value in test [2] is listed as 44%.

With `CCCCCCCOc1ccc(C[C@H]2C(=O)OC[C@@H]2Cc2ccccc2)cc1`, in test [1], the EC50 is over 100 µM. In addition, the “inhibition (INH)” value in test [2] is 17%.

`COc1cc(C[C@@H]2COC(=O)[C@H]2Cc2ccc(O)c(OC)c2)ccc1O`: the EC50 in test [1] and in test [3] was over 100 µM in each case.
